pIC50: −log10 of the molar value. One block for each compound: values may come before it.
Legend:
Format in all cases: biochemical
[1] = molecular target: T1, p110δ (PI 3-Kδ, p110δ/p85α) (Homo sapiens, UniProt O00329); assay: HTRF kinetics, […] ATP; details: PI([…])P2 co-substrate, His-tag removed
T1 construct: gene PIK3CD; full-length p110δ with N-His6-rTEV tag (tag removed by rTEV) co-expressed with full-length p85α; baculovirus/Sf9; IMAC, MonoQ; heterodimer; with Phosphatidylinositol 3-kinase regulatory subunit alpha

[2] = molecular target: T2, p110β (PI 3-Kβ, p110β/p85α) (Homo sapiens, UniProt P42338); assay: HTRF kinetics, […] ATP; details: PI([…])P2 co-substrate, His-tag removed
T2 construct: gene PIK3CB; full-length p110β with N-His6-rTEV tag (tag removed by rTEV) co-expressed with full-length p85α; baculovirus/Sf9; IMAC, MonoQ; heterodimer; with Phosphatidylinositol 3-kinase regulatory subunit alpha

[3] = molecular target: T3, p110α (PI 3-Kα, p110α/p85α) (Homo sapiens, UniProt P42336); assay: HTRF kinetics, […] ATP; details: PI([…])P2 co-substrate, His-tag removed
T3 construct: gene PIK3CA; full-length p110α with N-His6-rTEV tag (tag removed by rTEV) co-expressed with full-length p85α; baculovirus/Sf9; IMAC, MonoQ; heterodimer; with Phosphatidylinositol 3-kinase regulatory subunit alpha

p110γ (PI 3-Kγ) [4] = molecular target: T4, p110γ (PI 3-Kγ) (Homo sapiens, UniProt P48736); assay: HTRF kinetics, […] ATP; details: PI([…])P2 co-substrate, His-tag removed
T4 construct: gene PIK3CG; catalytic subunit only, N-His6-rTEV tag (tag removed by rTEV); baculovirus/Sf9

[5] = molecular target: T2, p110β (PI 3-Kβ, p110β/p85α); assay: HTRF lipid kinase assay; details: […] ATP, PI([…])P2 substrate, His-tag removed
p110γ (PI 3-Kγ) [6] = molecular target: T4, p110γ (PI 3-Kγ); assay: HTRF lipid kinase assay

T4 sequence (P48736 whole entry): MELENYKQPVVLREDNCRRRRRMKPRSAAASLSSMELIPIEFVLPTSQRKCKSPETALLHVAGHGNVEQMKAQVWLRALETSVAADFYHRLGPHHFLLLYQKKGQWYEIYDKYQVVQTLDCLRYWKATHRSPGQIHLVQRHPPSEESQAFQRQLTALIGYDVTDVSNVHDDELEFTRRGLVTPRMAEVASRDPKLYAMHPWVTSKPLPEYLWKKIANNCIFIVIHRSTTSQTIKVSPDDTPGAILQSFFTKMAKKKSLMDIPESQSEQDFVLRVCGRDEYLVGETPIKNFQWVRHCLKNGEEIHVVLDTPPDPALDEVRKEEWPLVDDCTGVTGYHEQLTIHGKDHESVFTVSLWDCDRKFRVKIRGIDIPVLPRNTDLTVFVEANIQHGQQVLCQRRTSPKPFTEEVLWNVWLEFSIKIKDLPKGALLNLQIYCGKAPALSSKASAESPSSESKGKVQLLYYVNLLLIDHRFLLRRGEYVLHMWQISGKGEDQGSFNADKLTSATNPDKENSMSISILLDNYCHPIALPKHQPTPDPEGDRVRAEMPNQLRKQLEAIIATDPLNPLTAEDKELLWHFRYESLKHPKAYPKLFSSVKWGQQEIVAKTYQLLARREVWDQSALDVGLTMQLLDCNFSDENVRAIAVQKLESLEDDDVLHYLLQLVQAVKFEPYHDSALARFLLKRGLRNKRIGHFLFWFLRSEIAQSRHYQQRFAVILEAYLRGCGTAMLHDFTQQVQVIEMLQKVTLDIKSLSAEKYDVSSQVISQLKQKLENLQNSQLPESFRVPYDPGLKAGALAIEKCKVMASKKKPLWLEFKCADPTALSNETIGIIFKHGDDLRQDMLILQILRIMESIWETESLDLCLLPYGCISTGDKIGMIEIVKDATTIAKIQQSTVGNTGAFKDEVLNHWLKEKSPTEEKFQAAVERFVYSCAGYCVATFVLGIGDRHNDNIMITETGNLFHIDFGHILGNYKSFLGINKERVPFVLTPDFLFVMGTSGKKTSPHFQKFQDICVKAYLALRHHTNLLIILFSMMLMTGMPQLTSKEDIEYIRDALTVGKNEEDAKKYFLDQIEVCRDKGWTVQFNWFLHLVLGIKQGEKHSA
T2 sequence (P42338 whole entry): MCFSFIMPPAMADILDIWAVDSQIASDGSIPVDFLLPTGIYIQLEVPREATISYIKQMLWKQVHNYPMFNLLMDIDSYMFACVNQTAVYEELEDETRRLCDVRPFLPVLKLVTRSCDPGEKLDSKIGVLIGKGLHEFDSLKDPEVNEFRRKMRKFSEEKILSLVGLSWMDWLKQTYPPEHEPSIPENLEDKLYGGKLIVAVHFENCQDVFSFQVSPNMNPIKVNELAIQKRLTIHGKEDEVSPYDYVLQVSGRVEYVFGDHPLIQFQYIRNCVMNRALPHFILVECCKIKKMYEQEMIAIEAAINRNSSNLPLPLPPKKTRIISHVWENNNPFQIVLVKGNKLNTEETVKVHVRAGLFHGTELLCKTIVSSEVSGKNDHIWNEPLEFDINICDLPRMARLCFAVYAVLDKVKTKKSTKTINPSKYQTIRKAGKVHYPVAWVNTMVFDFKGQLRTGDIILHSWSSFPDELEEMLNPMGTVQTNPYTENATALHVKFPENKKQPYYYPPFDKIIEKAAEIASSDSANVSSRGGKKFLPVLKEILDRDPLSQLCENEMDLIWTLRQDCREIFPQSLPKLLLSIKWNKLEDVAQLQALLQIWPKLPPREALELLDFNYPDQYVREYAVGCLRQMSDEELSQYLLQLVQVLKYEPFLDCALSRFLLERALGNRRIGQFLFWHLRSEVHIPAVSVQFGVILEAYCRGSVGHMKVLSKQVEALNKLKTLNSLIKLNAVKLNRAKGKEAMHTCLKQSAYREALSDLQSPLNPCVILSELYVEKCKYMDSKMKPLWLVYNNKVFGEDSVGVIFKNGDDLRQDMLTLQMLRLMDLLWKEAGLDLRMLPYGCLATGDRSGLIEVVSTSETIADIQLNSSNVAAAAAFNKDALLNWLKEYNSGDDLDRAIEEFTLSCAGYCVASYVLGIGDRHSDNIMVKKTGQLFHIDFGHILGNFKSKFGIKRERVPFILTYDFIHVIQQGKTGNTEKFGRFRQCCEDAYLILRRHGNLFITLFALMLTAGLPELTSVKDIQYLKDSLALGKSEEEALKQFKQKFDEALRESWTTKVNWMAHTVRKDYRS
T2 sequence (P27986 2-724 partner): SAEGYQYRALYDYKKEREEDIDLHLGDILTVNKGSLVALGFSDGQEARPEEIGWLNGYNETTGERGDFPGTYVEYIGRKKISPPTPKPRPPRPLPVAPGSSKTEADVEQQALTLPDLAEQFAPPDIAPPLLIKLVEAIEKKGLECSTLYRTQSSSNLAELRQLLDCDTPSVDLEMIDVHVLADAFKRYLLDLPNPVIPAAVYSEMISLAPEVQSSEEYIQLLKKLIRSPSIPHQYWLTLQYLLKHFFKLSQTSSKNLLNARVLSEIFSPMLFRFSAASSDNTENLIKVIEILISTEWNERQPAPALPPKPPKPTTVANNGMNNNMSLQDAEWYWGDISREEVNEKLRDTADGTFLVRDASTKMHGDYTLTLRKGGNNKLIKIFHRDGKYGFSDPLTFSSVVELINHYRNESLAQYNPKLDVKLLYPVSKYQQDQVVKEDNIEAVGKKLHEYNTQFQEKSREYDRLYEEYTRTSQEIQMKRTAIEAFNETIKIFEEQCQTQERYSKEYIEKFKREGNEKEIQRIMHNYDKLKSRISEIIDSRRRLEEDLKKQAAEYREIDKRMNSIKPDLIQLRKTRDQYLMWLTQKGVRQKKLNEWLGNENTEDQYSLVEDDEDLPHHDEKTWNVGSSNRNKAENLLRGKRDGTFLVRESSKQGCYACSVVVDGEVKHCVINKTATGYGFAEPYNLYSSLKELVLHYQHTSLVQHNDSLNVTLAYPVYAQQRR
T3 sequence (P42336 whole entry): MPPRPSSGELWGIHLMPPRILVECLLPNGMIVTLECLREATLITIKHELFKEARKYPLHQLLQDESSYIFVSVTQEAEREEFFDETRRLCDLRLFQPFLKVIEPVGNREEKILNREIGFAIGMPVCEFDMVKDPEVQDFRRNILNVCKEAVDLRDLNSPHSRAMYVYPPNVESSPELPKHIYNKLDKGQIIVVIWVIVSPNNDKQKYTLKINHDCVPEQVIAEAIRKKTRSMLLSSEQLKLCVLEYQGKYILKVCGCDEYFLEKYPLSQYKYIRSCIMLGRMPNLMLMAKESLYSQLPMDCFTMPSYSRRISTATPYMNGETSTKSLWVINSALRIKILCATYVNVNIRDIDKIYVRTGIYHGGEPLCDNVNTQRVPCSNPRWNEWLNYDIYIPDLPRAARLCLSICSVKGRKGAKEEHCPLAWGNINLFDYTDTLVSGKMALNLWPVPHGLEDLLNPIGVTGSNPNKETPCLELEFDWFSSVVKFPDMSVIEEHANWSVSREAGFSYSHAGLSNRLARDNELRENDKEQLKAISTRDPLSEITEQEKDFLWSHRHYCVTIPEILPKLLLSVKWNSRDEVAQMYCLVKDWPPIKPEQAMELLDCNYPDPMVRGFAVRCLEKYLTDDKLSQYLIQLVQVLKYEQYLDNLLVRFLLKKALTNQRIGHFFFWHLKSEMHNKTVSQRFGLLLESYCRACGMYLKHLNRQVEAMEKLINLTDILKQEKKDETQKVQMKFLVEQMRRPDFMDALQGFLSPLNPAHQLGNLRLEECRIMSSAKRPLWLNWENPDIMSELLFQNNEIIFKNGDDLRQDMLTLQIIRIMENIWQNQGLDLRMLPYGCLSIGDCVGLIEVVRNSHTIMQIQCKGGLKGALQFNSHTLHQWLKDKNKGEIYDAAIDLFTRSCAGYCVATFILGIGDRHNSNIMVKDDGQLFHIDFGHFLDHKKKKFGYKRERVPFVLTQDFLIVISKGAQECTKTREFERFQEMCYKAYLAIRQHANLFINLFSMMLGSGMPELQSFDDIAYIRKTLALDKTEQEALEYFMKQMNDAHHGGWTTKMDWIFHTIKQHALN
T3 sequence (P27986 2-724 partner): as the sequence (P27986 2-724 partner) above
T1 sequence (O00329 whole entry): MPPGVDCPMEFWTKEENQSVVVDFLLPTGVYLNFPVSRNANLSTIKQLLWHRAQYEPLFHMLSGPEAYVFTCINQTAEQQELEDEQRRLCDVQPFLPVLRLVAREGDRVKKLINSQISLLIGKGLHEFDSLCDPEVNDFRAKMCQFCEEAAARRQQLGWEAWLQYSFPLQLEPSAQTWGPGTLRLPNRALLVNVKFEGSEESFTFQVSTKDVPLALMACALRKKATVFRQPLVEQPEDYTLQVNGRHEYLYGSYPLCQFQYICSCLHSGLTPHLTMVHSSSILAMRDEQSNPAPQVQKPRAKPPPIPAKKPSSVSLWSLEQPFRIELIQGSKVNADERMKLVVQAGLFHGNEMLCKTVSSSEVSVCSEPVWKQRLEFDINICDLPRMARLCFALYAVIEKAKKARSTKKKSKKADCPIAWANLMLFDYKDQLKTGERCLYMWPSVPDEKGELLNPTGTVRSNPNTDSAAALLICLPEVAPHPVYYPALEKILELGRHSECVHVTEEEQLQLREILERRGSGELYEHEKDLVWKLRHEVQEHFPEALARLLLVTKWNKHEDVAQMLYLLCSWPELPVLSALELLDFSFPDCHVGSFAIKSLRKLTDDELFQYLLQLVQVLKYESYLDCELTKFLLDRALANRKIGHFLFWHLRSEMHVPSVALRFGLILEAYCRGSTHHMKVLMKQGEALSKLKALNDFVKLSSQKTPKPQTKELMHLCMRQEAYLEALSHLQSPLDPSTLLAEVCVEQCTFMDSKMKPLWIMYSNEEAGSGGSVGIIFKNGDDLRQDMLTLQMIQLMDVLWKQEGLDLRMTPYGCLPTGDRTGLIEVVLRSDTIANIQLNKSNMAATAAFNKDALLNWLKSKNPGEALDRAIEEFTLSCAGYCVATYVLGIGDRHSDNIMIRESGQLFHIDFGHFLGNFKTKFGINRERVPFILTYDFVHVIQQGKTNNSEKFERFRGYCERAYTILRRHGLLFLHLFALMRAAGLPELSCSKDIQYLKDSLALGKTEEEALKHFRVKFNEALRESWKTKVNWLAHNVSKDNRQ
T1 sequence (P27986 2-724 partner): as the sequence (P27986 2-724 partner) above

- Km [1]: (B) Km for ATP in μM
- Km [2]: (B) Km for ATP in μM
- Km [3]: (B) Km for ATP in μM
- Km (p110γ (PI 3-Kγ) [4]): (B) Km for ATP in μM
SMILES: Nc1ncnc2c1ncn2[C@@H]1O[C@H](COP(=O)(O)OP(=O)(O)OP(=O)(O)O)[C@@H](O)[C@H]1O [ATP]

- pIC50 [5]: 7.85
SMILES: Cc1cc([C@H](C)Nc2ccccc2)c2oc(N3CCOCC3)cc(=O)c2c1 [PIK108]

- pIC50 (p110γ (PI 3-Kγ) [6]): 7.59
SMILES: Cc1ccc([N+](=O)[O-])cc1S(=O)(=O)N(C)/N=C/c1cnc2ccc(Br)cn12 [PIK-75]
